Data on one compound can be found in patent US12194080B2, “Methods for identification, assessment, prevention, and treatment of metabolic disorders using PM20D1 and N-lipidated amino acids” (Dana-Farber Cancer Institute, Inc., priority 2015, dated 2025).

SMILES strings stand for the structures.

The subject of one test is U2OS cells. As to the kind of experiment: Cellular oxygen consumption rate (uncoupled respiration), U2OS cells. Format: cell-based, human. The settings on record: 50 μM, after oligomycin 1 μM. As to the method:
C2C12, U2O5, and 293A cells were cultured in DMEM with 10% FBS and pen/strep. Primary inguinal (iWAT) and brown (BAT) adipocytes were obtained as follows. The stromal-vascular fraction of inguinal (iWAT) pad from 4-12 week old male mice was dissected, minced, and digested for 45 min. at 37° C. in PBS containing 10 mM CaCl2, 2.4 U/ml dispase II (Roche), and 1.5 U/ml collagenase D (Roche). The stromal-vascular fraction of brown fat (BAT) pads from newborn (P1-P14) pups was dissected, minced, and digested for 45 min at 37° C. in PBS containing 1.3 mM CaCl2, 120 mM NaCl, 5 mM KCl, 5 mM glucose, 100 mM HEPES, 4% BSA, and 1.5 mg/ml collagenase B (Roche). Digested tissue was diluted with adipocyte culture media (DMEM/F-12, GlutaMAX™ supplement, Life Technologies, with 10% FBS and pen/strep) and centrifuged (600×g for 10 min.). The pellet was resuspended in 10 ml adipocyte culture media, strained through a 40 μm filter, and plated. Differentiation was induced by application of an adipogenic cocktail containing 5 μg/ml insulin (Sigma), 5 μM dexamethasone (Sigma), 250 μM isobutylmethylxanthine (Sigma), and 1 μM rosiglitazone (Cayman) for 2 days. Two days after induction, cells were maintained in adipocyte culture media containing 5 μg/ml insulin and 1 μM rosiglitazone.
Cellular oxygen consumption rates were determined using an XF24 Extracellular Flux Analyzer (Seahorse Biosciences). Oligomycin was purchased from EMD Millipore, and FCCP and rotenone were purchased from Sigma. C2C12 or U2OS cells were seeded at 30,000 or 50,000 cells/well, respectively in an XF24 cell culture microplate (V7-PS, Seahorse Bioscience) and analyzed the following day. Primary iWAT or BAT adipocytes were seeded at 15,000 cells/well, differentiation was induced the following day as described, and the cells were analyzed on day 5. On the day of analysis, the cells were washed once with Seahorse respiration buffer (8.3 g/1 DMEM, 1.8 g/l NaCl, 1 mM pyruvate, 20 mM glucose, pen/strep), placed in 0.5 ml Seahorse respiration buffer, and incubated in a CO2-free incubator for 1 hr. Port injection solutions were prepared as follows (final concentrations in assay in parentheses): 10 μM oligomycin (1 μM final), […] amino acid (50 μM final), 2 μM FCCP (0.2 μM final), and 30 μM rotenone (3 μM final). The Seahorse program was run as follows: basal measurement, 3 cycles; inject port A (oligomycin), 3 cycles; inject port B (compounds), 8 cycles; inject port C (FCCP), 3 cycles; inject port D (rotenone), 3 cycles. Each cycle consisted of mix 4 min, wait 0 min, and measure 2 min. For data expressed as a percentage of oligomycin-treated basal, the respiration at cycle 6 was normalized to 100%, and the maximum respiration at any time point between cycles 7 and 15 inclusive was used.

The next test concerns BAT mitochondria. As to the kind of experiment: Respiration of isolated crude BAT mitochondria. Type of test: biochemical, mouse. The settings on record: 10-100 μM; 10 mM pyruvate and 5 mM malate as substrates. As to the method:
BAT pads from ten 6-12 week old male mice were harvested and minced on ice in isolation buffer (250 mM sucrose, 5 mM HEPES, and 1 mM EGTA) supplemented with 2% fatty acid-free BSA (Sigma). The tissue was then homogenized in a Teflon homogenizer and centrifuged (8,500×g, 10 min, 4° C.). The supernatant was discarded, the pellet was re-suspended in 20 ml isolation buffer supplemented with 1% fatty acid-free BSA, and centrifuged (700×g, 10 min, 4° C.). The supernatant was centrifuged one final time (8,500×g, 10 min, 4° C.). The pellet was re-suspended in isolation buffer supplemented with 1% fatty acid-free BSA (200 μl) to yield crude BAT mitochondria at 50-80 mg/ml. For respiration measurements, BAT mitochondria were diluted to in mitochondria respiration buffer (5 mM KCl, 4 mM KH2PO4, 5 mM HEPES, 1 mM EGTA, 1% fatty acid free BSA, 10 mM pyruvate, 5 mM malate, and 1 mM GDP) and plated at 15 μg/well (50 μl total volume) in an XF24 cell culture microplate. The plate was centrifuged (1000×g, 20 min, 4° C.), additional pre-warmed mitochondrial respiration buffer was added (450 μl), and respiration was measured on a XF24 Extracellular Flux Analyzer. The Seahorse program was run as follows: basal measurement, 2 cycles; inject port A (compounds), 1 cycle, inject port B (FCCP), 1 cycle, inject port C (rotenone), 1 cycle. Each cycle consisted of mix 0.5 min, wait 0 min, measure 2 min. […]

Test [1] relates to Diet induced obese (DIO) mice. In words: Indirect calorimetry (CLAMS) of high fat diet/DIO mice treated with N-acyl amino acids. Type of test: in vivo, mouse. On the procedure:
Animal experiments were performed according to procedures approved by the Beth Israel Deaconess Medical Center IACUC. Mice were maintained in 12 h light-dark cycles at 22° C. and fed a standard irradiated rodent chow diet. All experiments on wild-type mice were performed with male C57BL/6 mice purchased from Jackson Laboratories, except for the AAV experiments, which were performed with male C57BL/6 mice from Charles River. UCP1-KO (stock #017476) and 16-20 week DIO mice (stock #380050) were obtained from Jackson Laboratories. For AAV injection experiments, mice were gently warmed using a 250 W clear infrared heat lamp, immobilized, and injected via tail vein with 10^10 virus/mouse (diluted in saline) in a total volume of 100 μl/mouse. Where indicated, mice were placed on high-fat diet (60% fat, Research Diets). For cold exposure experiments, mice were group housed and placed at 4° C. for the indicated times. For the preparation of C18:1-Phe for in vivo injections, compounds were dissolved in 18:1:1 v/v/v saline:Kolliphor® EL (Sigma Aldrich):DMSO and sonicated until homogeneous. Mice were administered compounds at 5 μl/g body weight at the indicated doses. For all injection experiments, mice were mock injected with saline daily for 3 days prior to the start of the experiments. For glucose tolerance tests (GTTs), mice received their final dose of compound the day prior to the assay and were then fasted overnight. Glucose was administered at 1.5 g/kg.
Energy expenditure, O2 consumption, CO2 production, respiratory exchange ratio, total locomotor activity, and food intake measurements were made with a 16-cage Columbus Instruments Oxymax Comprehensive Lab Animal Monitoring System (CLAMS) at ambient room temperature (21-23° C.). Mice were acclimated for one day in metabolic cages prior to data collection. Whole-body composition was assessed with an EchoMRI™ 3-in-1 on conscious mice.

Setting [2] is: daily i.p.: C18:1-Leu 25, C18:1-Phe 30, C20:4-Gly 15 mg/kg/day.

Consider `CCCCCCCC/C=C\CCCCCCCC(=O)N[C@@H](Cc1ccccc1)C(=O)O` [C18:1-Phe, Oleoyl-L-phenylalanine], for which, in the test on U2OS cells, the “uncoupling activity (uncoupled respiration)” value is given as “possessed uncoupling activity”. In addition, the “respiration of isolated mitochondria” value in the test with BAT mitochondria is “increased respiration in a dose-dependent manner”. In test [1] (16-week high fat diet mice, 10 mg/kg daily, days 5 and 6), the movement entry is “similar”. In test [1] (setting [2]), the VO2 entry was “significantly augmented” and the movement entry is reported as “no effects”.
